In brackets after ≈: the same amount, converted by molar mass.
These molecules were tested on Klebsiella pneumoniae (assay: Antibacterial activity against Klebsiella pneumoniae 12-4 after 18 to 24 hrs by standard twofold serial dilution method).
Type: functional

SMILES	MIC [mg/L]
CCO/N=C1/CN(c2c(F)cc3c(=O)c(C(=O)O)cn([C@@H]4C[C@@H]4F)c3c2OC)CC1CN (some centres not stated)	4 (≈ 8.88 µM)

The molecules below were run on Klebsiella pneumoniae (assay: Antibacterial activity against Klebsiella pneumoniae 12-2 after 18 to 24 hrs by standard twofold serial dilution method).
Type: functional

SMILES	MIC [mg/L]
CCO/N=C1/CN(c2c(F)cc3c(=O)c(C(=O)O)cn([C@@H]4C[C@@H]4F)c3c2OC)CC1CN (some centres not stated)	4 (≈ 8.88 µM)

The molecules below were run on Staphylococcus epidermidis (assay: Antibacterial activity against methicillin-sensitive Staphylococcus epidermidis 12-8 after 18 to 24 hrs by standard twofold serial dilution method).
Type: functional

SMILES	MIC [mg/L]
CCO/N=C1/CN(c2c(F)cc3c(=O)c(C(=O)O)cn([C@@H]4C[C@@H]4F)c3c2OC)CC1CN (some centres not stated)	16 (≈ 35.5 µM)

What follows are molecules tested on Staphylococcus epidermidis (assay: Antibacterial activity against methicillin-sensitive Staphylococcus epidermidis 12-6 after 18 to 24 hrs by standard twofold serial dilution method).
Type: functional

SMILES	MIC [mg/L]
CCO/N=C1/CN(c2c(F)cc3c(=O)c(C(=O)O)cn([C@@H]4C[C@@H]4F)c3c2OC)CC1CN (some centres not stated)	0.25 (≈ 0.555 µM)

What follows are molecules tested on Escherichia coli (assay: Antibacterial activity against extended-spectrum beta-lactamase producing Escherichia coli 12-14 after 18 to 24 hrs by standard twofold serial dilution method).
Type: functional

SMILES	MIC [mg/L]
CCO/N=C1/CN(c2c(F)cc3c(=O)c(C(=O)O)cn([C@@H]4C[C@@H]4F)c3c2OC)CC1CN (some centres not stated)	> 128

What follows are molecules tested on Staphylococcus epidermidis (assay: Antibacterial activity against methicillin-sensitive Staphylococcus epidermidis 12-1 after 18 to 24 hrs by standard twofold serial dilution method).
Type: functional

SMILES	MIC [mg/L]
CCO/N=C1/CN(c2c(F)cc3c(=O)c(C(=O)O)cn([C@@H]4C[C@@H]4F)c3c2OC)CC1CN (some centres not stated)	0.25 (≈ 0.555 µM)

Each molecule was assayed on Escherichia coli (assay: Antibacterial activity against extended-spectrum beta-lactamase producing Escherichia coli 12-15 after 18 to 24 hrs by standard twofold serial dilution method).
Type: functional

SMILES	MIC [mg/L]
CCO/N=C1/CN(c2c(F)cc3c(=O)c(C(=O)O)cn([C@@H]4C[C@@H]4F)c3c2OC)CC1CN (some centres not stated)	> 128

The molecules below were run on Klebsiella pneumoniae (assay: Antibacterial activity against extended-spectrum beta-lactamase producin Klebsiella pneumoniae 12-3 after 18 to 24 hrs by standard twofold serial dilution method).
Type: functional

SMILES	MIC [mg/L]
CCO/N=C1/CN(c2c(F)cc3c(=O)c(C(=O)O)cn([C@@H]4C[C@@H]4F)c3c2OC)CC1CN (some centres not stated)	> 128

These molecules were tested on Staphylococcus epidermidis (assay: Antibacterial activity against methicillin-sensitive Staphylococcus epidermidis 12-3 after 18 to 24 hrs by standard twofold serial dilution method).
Type: functional

SMILES	MIC [mg/L]
CCO/N=C1/CN(c2c(F)cc3c(=O)c(C(=O)O)cn([C@@H]4C[C@@H]4F)c3c2OC)CC1CN (some centres not stated)	2 (≈ 4.44 µM)

These molecules were tested on Staphylococcus aureus (assay: Antibacterial activity against methicillin-resistant Staphylococcus aureus 12-4 after 18 to 24 hrs by standard twofold serial dilution method).
Type: functional

SMILES	MIC [mg/L]
CCO/N=C1/CN(c2c(F)cc3c(=O)c(C(=O)O)cn([C@@H]4C[C@@H]4F)c3c2OC)CC1CN (some centres not stated)	128 (≈ 284 µM)

Each molecule was assayed on Pseudomonas aeruginosa (assay: Antibacterial activity against Pseudomonas aeruginosa 12-12 after 18 to 24 hrs by standard twofold serial dilution method).
Type: functional

SMILES	MIC [mg/L]
CCO/N=C1/CN(c2c(F)cc3c(=O)c(C(=O)O)cn([C@@H]4C[C@@H]4F)c3c2OC)CC1CN (some centres not stated)	8 (≈ 17.8 µM)

What follows are molecules tested on Klebsiella pneumoniae (assay: Antibacterial activity against extended-spectrum beta-lactamase producin Klebsiella pneumoniae 12-7 after 18 to 24 hrs by standard twofold serial dilution method).
Type: functional

SMILES	MIC [mg/L]
CCO/N=C1/CN(c2c(F)cc3c(=O)c(C(=O)O)cn([C@@H]4C[C@@H]4F)c3c2OC)CC1CN (some centres not stated)	32 (≈ 71 µM)

The molecules below were run on Klebsiella pneumoniae (assay: Antibacterial activity against extended-spectrum beta-lactamase producin Klebsiella pneumoniae 12-14 after 18 to 24 hrs by standard twofold serial dilution method).
Type: functional

SMILES	MIC [mg/L]
CCO/N=C1/CN(c2c(F)cc3c(=O)c(C(=O)O)cn([C@@H]4C[C@@H]4F)c3c2OC)CC1CN (some centres not stated)	> 128

These molecules were tested on Escherichia coli (assay: Antibacterial activity against Escherichia coli ATCC 25922 after 18 to 24 hrs by standard twofold serial dilution method).
Type: functional

SMILES	MIC [mg/L]
CCO/N=C1/CN(c2c(F)cc3c(=O)c(C(=O)O)cn([C@@H]4C[C@@H]4F)c3c2OC)CC1CN (some centres not stated)	4 (≈ 8.88 µM)

The molecules below were run on Staphylococcus aureus (assay: Antibacterial activity against methicillin-sensitive Staphylococcus aureus 12-5 after 18 to 24 hrs by standard twofold serial dilution method).
Type: functional

SMILES	MIC [mg/L]
CCO/N=C1/CN(c2c(F)cc3c(=O)c(C(=O)O)cn([C@@H]4C[C@@H]4F)c3c2OC)CC1CN (some centres not stated)	0.25 (≈ 0.555 µM)

The molecules below were run on Streptococcus pneumoniae (assay: Antibacterial activity against Streptococcus pneumoniae ATCC 49619 after 18 to 24 hrs by standard twofold serial dilution method).
Type: functional

SMILES	MIC [mg/L]
CCO/N=C1/CN(c2c(F)cc3c(=O)c(C(=O)O)cn([C@@H]4C[C@@H]4F)c3c2OC)CC1CN (some centres not stated)	4 (≈ 8.88 µM)

These molecules were tested on Mycobacterium tuberculosis (assay: Antimycobacterial activity against Mycobacterium tuberculosis H37Rv ATCC 27294 by MABA method).
Type: functional

SMILES	MIC [mg/L]
CCO/N=C1/CN(c2c(F)cc3c(=O)c(C(=O)O)cn([C@@H]4C[C@@H]4F)c3c2OC)CC1CN (some centres not stated)	32 (≈ 71 µM)

What follows are molecules tested on Staphylococcus aureus (assay: Antibacterial activity against methicillin-resistant Staphylococcus aureus 12-2 after 18 to 24 hrs by standard twofold serial dilution method).
Type: functional

SMILES	MIC [mg/L]
CCO/N=C1/CN(c2c(F)cc3c(=O)c(C(=O)O)cn([C@@H]4C[C@@H]4F)c3c2OC)CC1CN (some centres not stated)	128 (≈ 284 µM)

The molecules below were run on Streptococcus pneumoniae (assay: Antibacterial activity against Streptococcus pneumoniae 12-18 after 18 to 24 hrs by standard twofold serial dilution method).
Type: functional

SMILES	MIC [mg/L]
CCO/N=C1/CN(c2c(F)cc3c(=O)c(C(=O)O)cn([C@@H]4C[C@@H]4F)c3c2OC)CC1CN (some centres not stated)	4 (≈ 8.88 µM)

Each molecule was assayed on Klebsiella pneumoniae (assay: Antibacterial activity against extended-spectrum beta-lactamase producin Klebsiella pneumoniae 12-4 after 18 to 24 hrs by standard twofold serial dilution method).
Type: functional

SMILES	MIC [mg/L]
CCO/N=C1/CN(c2c(F)cc3c(=O)c(C(=O)O)cn([C@@H]4C[C@@H]4F)c3c2OC)CC1CN (some centres not stated)	128 (≈ 284 µM)

The molecules below were run on Staphylococcus aureus (assay: Antibacterial activity against methicillin-sensitive Staphylococcus aureus 12-1 after 18 to 24 hrs by standard twofold serial dilution method).
Type: functional

SMILES	MIC [mg/L]
CCO/N=C1/CN(c2c(F)cc3c(=O)c(C(=O)O)cn([C@@H]4C[C@@H]4F)c3c2OC)CC1CN (some centres not stated)	0.25 (≈ 0.555 µM)

Each molecule was assayed on Staphylococcus epidermidis (assay: Antibacterial activity against methicillin-resistant Staphylococcus epidermidis 12-6 after 18 to 24 hrs by standard twofold serial dilution method).
Type: functional

SMILES	MIC [mg/L]
CCO/N=C1/CN(c2c(F)cc3c(=O)c(C(=O)O)cn([C@@H]4C[C@@H]4F)c3c2OC)CC1CN (some centres not stated)	> 128

These molecules were tested on Klebsiella pneumoniae (assay: Antibacterial activity against Klebsiella pneumoniae 12-1 after 18 to 24 hrs by standard twofold serial dilution method).
Type: functional

SMILES	MIC [mg/L]
CCO/N=C1/CN(c2c(F)cc3c(=O)c(C(=O)O)cn([C@@H]4C[C@@H]4F)c3c2OC)CC1CN (some centres not stated)	4 (≈ 8.88 µM)

What follows are molecules tested on Staphylococcus aureus (assay: Antibacterial activity against methicillin-sensitive Staphylococcus aureus 12-4 after 18 to 24 hrs by standard twofold serial dilution method).
Type: functional

SMILES	MIC [mg/L]
CCO/N=C1/CN(c2c(F)cc3c(=O)c(C(=O)O)cn([C@@H]4C[C@@H]4F)c3c2OC)CC1CN (some centres not stated)	0.25 (≈ 0.555 µM)

Each molecule was assayed on Staphylococcus aureus (assay: Antibacterial activity against methicillin-resistant Staphylococcus aureus 12-5 after 18 to 24 hrs by standard twofold serial dilution method).
Type: functional

SMILES	MIC [mg/L]
CCO/N=C1/CN(c2c(F)cc3c(=O)c(C(=O)O)cn([C@@H]4C[C@@H]4F)c3c2OC)CC1CN (some centres not stated)	64 (≈ 142 µM)

Each molecule was assayed on Escherichia coli (assay: Antibacterial activity against Escherichia coli 12-1 after 18 to 24 hrs by standard twofold serial dilution method).
Type: functional

SMILES	MIC [mg/L]
CCO/N=C1/CN(c2c(F)cc3c(=O)c(C(=O)O)cn([C@@H]4C[C@@H]4F)c3c2OC)CC1CN (some centres not stated)	16 (≈ 35.5 µM)

The molecules below were run on Staphylococcus aureus (assay: Antibacterial activity against Staphylococcus aureus ATCC 25923 after 18 to 24 hrs by standard twofold serial dilution method).
Type: functional

SMILES	MIC [mg/L]
CCO/N=C1/CN(c2c(F)cc3c(=O)c(C(=O)O)cn([C@@H]4C[C@@H]4F)c3c2OC)CC1CN (some centres not stated)	0.015 (≈ 0.0333 µM)

What follows are molecules tested on Pseudomonas aeruginosa (assay: Antibacterial activity against Pseudomonas aeruginosa 12-14 after 18 to 24 hrs by standard twofold serial dilution method).
Type: functional

SMILES	MIC [mg/L]
CCO/N=C1/CN(c2c(F)cc3c(=O)c(C(=O)O)cn([C@@H]4C[C@@H]4F)c3c2OC)CC1CN (some centres not stated)	128 (≈ 284 µM)

What follows are molecules tested on Escherichia coli (assay: Antibacterial activity against extended-spectrum beta-lactamase producing Escherichia coli 12-3 after 18 to 24 hrs by standard twofold serial dilution method).
Type: functional

SMILES	MIC [mg/L]
CCO/N=C1/CN(c2c(F)cc3c(=O)c(C(=O)O)cn([C@@H]4C[C@@H]4F)c3c2OC)CC1CN (some centres not stated)	> 128

These molecules were tested on Staphylococcus aureus (assay: Antibacterial activity against methicillin-sensitive Staphylococcus aureus 12-2 after 18 to 24 hrs by standard twofold serial dilution method).
Type: functional

SMILES	MIC [mg/L]
CCO/N=C1/CN(c2c(F)cc3c(=O)c(C(=O)O)cn([C@@H]4C[C@@H]4F)c3c2OC)CC1CN (some centres not stated)	0.25 (≈ 0.555 µM)

Each molecule was assayed on Staphylococcus epidermidis (assay: Antibacterial activity against methicillin-resistant Staphylococcus epidermidis 12-1 after 18 to 24 hrs by standard twofold serial dilution method).
Type: functional

SMILES	MIC [mg/L]
CCO/N=C1/CN(c2c(F)cc3c(=O)c(C(=O)O)cn([C@@H]4C[C@@H]4F)c3c2OC)CC1CN (some centres not stated)	32 (≈ 71 µM)

These molecules were tested on Escherichia coli (assay: Antibacterial activity against extended-spectrum beta-lactamase producing Escherichia coli 12-2 after 18 to 24 hrs by standard twofold serial dilution method).
Type: functional

SMILES	MIC [mg/L]
CCO/N=C1/CN(c2c(F)cc3c(=O)c(C(=O)O)cn([C@@H]4C[C@@H]4F)c3c2OC)CC1CN (some centres not stated)	> 128

Reference: ChEMBL document CHEMBL3352227, “Synthesis, antimycobacterial and antibacterial evaluation of l-[(1R, 2S)-2-fluorocyclopropyl]fluoroquinolone derivatives containing an oxime functional moiety” (Eur J Med Chem, 2014)
